{
  "source": "patent US7745191B2",
  "about": "“Method of producing heterodimer derivative of protein phosphatase type 2A enzyme” (Tropical Technology Center Ltd., priority 2005, dated 2010)",
  "test": "Phosphatase activity of the purified protein using p-nitrophenylphosphate as substrate",
  "type": "biochemical",
  "conditions": "infected High Five cells incubated at 19° C. for 4 days versus 27° C. for 3 days (comparative example); FIG. 4",
  "protocol": "By SDS-PAGE (0.2 μg of protein; 10% SDS-gel), the purified recombinant protein in the recovered eluate was confirmed. The activity of the purified protein was determined according to a method using p-nitrophenylphosphate as substrate (Takai et al. 1995, Biochem J. 306:657-665).\nIn both figures, the term “27° C.” indicates the tagged catalytic unit of PP2A (comparative example), which was prepared in the same manner as in Example 3 except that the cells infected with the recombinant baculovirus was incubated at 27° C. for 3 days. In FIG. 3, the both end side lanes indicate a marker, the 2nd lane from left indicates the tagged catalytic unit of PP2A prepared by incubation at 27° C., and the 3rd lane from left indicates the tagged catalytic unit of PP2A prepared by incubation at 19° C.",
  "data": [
    {"substance": "tagged catalytic unit of PP2A: Recombinant human PP2A catalytic subunit carrying a polyhistidine tag (His-PP2Acα, His-PP2Acβ), expressed in baculovirus-infected High Five cells", "values": [
      {"measurement": "enhancement of activity to p-nitrophenylphosphate", "result": "≥ 6", "unit": "times"}
    ]}
  ]
}
